Molecular target: T1, Arabidopsis ADCS (PabAa-PabAb) (Arabidopsis thaliana, UniProt Q8LPN3)
T1 construct: bifunctional PabAa-PabAb ADC synthase in pLOI707HE; extract of E. coli BN1163 (pabA pabB mutant)
T1 sequence (Q8LPN3 46-919): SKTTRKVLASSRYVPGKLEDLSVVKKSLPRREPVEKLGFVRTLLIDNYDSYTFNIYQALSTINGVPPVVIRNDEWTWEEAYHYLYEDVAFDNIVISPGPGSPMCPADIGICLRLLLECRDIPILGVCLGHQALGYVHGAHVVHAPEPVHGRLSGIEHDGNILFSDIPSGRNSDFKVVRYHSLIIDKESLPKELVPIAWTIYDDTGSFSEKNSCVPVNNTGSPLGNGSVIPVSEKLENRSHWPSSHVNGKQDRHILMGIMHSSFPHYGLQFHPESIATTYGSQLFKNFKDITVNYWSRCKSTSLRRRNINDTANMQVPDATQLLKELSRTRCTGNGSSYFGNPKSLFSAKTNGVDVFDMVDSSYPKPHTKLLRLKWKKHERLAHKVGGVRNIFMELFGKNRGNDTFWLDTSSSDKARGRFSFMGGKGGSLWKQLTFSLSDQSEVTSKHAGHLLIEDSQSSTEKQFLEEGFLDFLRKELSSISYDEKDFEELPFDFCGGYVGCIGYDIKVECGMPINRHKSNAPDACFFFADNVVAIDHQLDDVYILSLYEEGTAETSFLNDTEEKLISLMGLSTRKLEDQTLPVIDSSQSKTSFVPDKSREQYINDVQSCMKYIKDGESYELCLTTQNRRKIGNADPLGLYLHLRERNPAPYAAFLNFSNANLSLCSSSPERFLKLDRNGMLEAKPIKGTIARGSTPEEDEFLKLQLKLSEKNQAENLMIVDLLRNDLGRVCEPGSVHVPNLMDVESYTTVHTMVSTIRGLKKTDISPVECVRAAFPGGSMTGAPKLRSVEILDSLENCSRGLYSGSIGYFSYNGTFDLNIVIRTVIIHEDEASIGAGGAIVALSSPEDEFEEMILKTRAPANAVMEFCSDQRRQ
Assay: pABA formation in cell extract, coupled to E. coli PabC (ADC lyase), HPLC with fluorescence detection
Assay type: biochemical
Details: E. coli PabC extract added, 37 °C, 1 h

Row | SMILES | pABA formation in cell extract, coupled to E. coli PabC (ADC lyase), HPLC with f (glutamine as amino donor) | pABA formation in cell extract, coupled to E. coli PabC (ADC lyase), HPLC with f (chorismate as co-substrate)
1 | C=C(O[C@@H]1C=C(C(=O)O)C=C[C@H]1O)C(=O)O [chorismate] | Arabidopsis PabAa-PabAb formed pABA only if PabAc was added | 
2 | NC(=O)CC[C@H](N)C(=O)O [glutamine] |  | Arabidopsis PabAa-PabAb formed pABA only if PabAc was added
